Results as given in ChEMBL document CHEMBL6153079, “Discovery of noncovalent diaminopyrimidine-based Inhibitors for glioblastoma via a dual FAK/DNA targeting strategy” (Eur J Med Chem, 2025).
Calls of active or inactive are those of the source. No cut-off for these calls is given here.

Assays:
U-87 MG [1] = test: Induction of DNA damage in human U-87 MG cells assessed as comet tail moment at 0.1 to 2 uM incubated for 2.5 to 3 hrs by comet assay; assay type: functional, U-87MG ATCC; details: time 2.5-3 hrs
U-87 MG [2] = test: Antitumor activity against human U-87 MG cells xenografted in BALB/c mouse assessed as inhibition of tumor growth at 25 mg/kg, ip administered once daily for 15 days; assay type: functional, U-87MG ATCC; details: 360 h, time 15 day, read-out: TGI
[3] = Toxicity in BALB/c mouse implanted with human U-87 MG cells assessed as lung damage at 25 mg/kg, ip administered once daily for 15 days by H and E staining based analysis; assay type: organism-based; details: in vivo, 360 h, time 15 day
[4] = Toxicity in BALB/c mouse implanted with human U-87 MG cells assessed as spleen damage at 25 mg/kg, ip administered once daily for 15 days by H and E staining based analysis; assay type: organism-based; details: in vivo, 360 h, time 15 day
U-251 = test: Antiproliferative activity against human U-251 assessed as cell viability incubated for 48 hrs by MTT assay; assay type: functional, cell-based; details: U-251, 48 h
U-87 MG [5] = test: Antiproliferative activity against human U-87 MG assessed as cell viability incubated for 48 hrs by MTT assay; assay type: functional, cell-based, U-87MG ATCC
Focal adhesion kinase 1 [6] = target: T1, Focal adhesion kinase 1 (Homo sapiens, UniProt Q05397); test: Inhibition of FAK (unknown origin) at 10 nM relative to control
[7] = Cytotoxicity against human LO2 assessed as cell viability incubated for 48 hrs by MTT assay; assay type: toxicity, cell-based, L02; details: LO2 cells
[8] = Cytotoxicity against human 2BS assessed as cell viability incubated for 48 hrs by MTT assay; assay type: toxicity, cell-based; details: 2BS cells
[9] = Distribution coefficient, logD of compound in n-Octanol/water at pH 7.4; assay type: physicochemical
U-87 MG [10] = test: Inhibition of colony formation in human U-87 MG cells at 0.005 uM incubated for 14 days and subsequent media replacement with compound for every 3 days by crystal violet staining based analysis; assay type: functional, cell-based; details: U-87MG ATCC, time 14.0 day
U-87 MG [11] = test: Inhibition of colony formation in human U-87 MG cells at 0.005 uM incubated for 14 days and subsequent media replacement with compound for every 3 days in presence of Chlorambucil by crystal violet staining based analysis; assay type: functional, cell-based; details: U-87MG ATCC, time 14.0 day
U-87 MG [12] = test: Antiproliferative activity against human U-87 MG assessed as inhibition of cell growth at 0.025 to 0.1 uM by clonogenic assay relative to control; assay type: functional, U-87MG ATCC; details: dose 0.025-0.1 µM
U-87 MG [13] = test: Antiproliferative activity against human U-87 MG assessed as inhibition of cell growth at 0.025 to 0.1 uM in presence of Chlorambucil by clonogenic assay relative to control; assay type: functional, U-87MG ATCC; details: dose 0.025-0.1 µM
U-87 MG [14] = test: Antiproliferative activity against human U-87 MG assessed as inhibition of cell growth at 0.005 uM by clonogenic assay relative to control; assay type: functional, U-87MG ATCC
U-87 MG [15] = test: Antiproliferative activity against human U-87 MG assessed as inhibition of cell growth at 0.005 uM in presence of Chlorambucil by clonogenic assay relative to control; assay type: functional, U-87MG ATCC
U-87 MG [16] = test: Inhibition of cell migration in human U-87 MG cells assessed as […] in migration distance at 0.1 to 1 uM incubated for 24 to 48 hrs by wound healing assay; assay type: functional, cell-based; details: U-87MG ATCC, dose 0.1-1 µM, time lower 24.0 hrs, time upper […]
U-87 MG [17] = test: Inhibition of cell migration in human U-87 MG cells assessed as […] at 0.1 to 1 uM by wound healing assay; assay type: functional, cell-based; details: U-87MG ATCC, dose 0.1-1 µM, time lower 24.0 hrs, time upper […]
Focal adhesion kinase 1 [18] = target: T1, Focal adhesion kinase 1; test: Inhibition of FAK phosphorylation in human U-87 MG cells at 0.05 to 0.4 uM incubated for 24 hrs by Western blot analysis; assay type: cell-based; details: dose 0.05-0.4 µM
U-87 MG [19] = test: Inhibition of AKT phosphorylation in human U-87 MG cells at 0.05 to 0.4 uM incubated for 24 hrs by Western blot analysis; assay type: cell-based; details: dose 0.05-0.4 µM
U-87 MG [20] = test: Inhibition of ERK1/2 phosphorylation in human U-87 MG cells at 0.05 to 0.4 uM incubated for 24 hrs by Western blot analysis; assay type: cell-based; details: dose 0.05-0.4 µM
U-87 MG [21] = test: Induction of apoptosis in human U-87 MG cells assessed as viable cells at 2 uM measured upto 24 hrs by Annexin V-FITC/PI staining based flow cytometry analysis (reference value: 98.4%); assay type: functional, U-87MG ATCC; details: read-out: Activity
U-87 MG [22] = test: Induction of apoptosis in human U-87 MG cells assessed as early apoptotic cells at 2 uM measured upto 24 hrs by Annexin V-FITC/PI staining based flow cytometry analysis (reference value: 0.45%); assay type: functional, U-87MG ATCC
U-87 MG [23] = test: Induction of apoptosis in human U-87 MG cells assessed as late apoptotic cells at 2 uM measured upto 24 hrs by Annexin V-FITC/PI staining based flow cytometry analysis (reference value: 0.54%); assay type: functional, U-87MG ATCC
U-87 MG [24] = test: Induction of apoptosis in human U-87 MG cells assessed as necrotic cells at 2 uM measured upto 24 hrs by Annexin V-FITC/PI staining based flow cytometry analysis (reference value: 0.62%); assay type: functional, U-87MG ATCC
U-87 MG [25] = test: Induction of apoptosis in human U-87 MG cells assessed as viable cells at 4 uM measured upto 24 hrs by Annexin V-FITC/PI staining based flow cytometry analysis (reference value: 98.4%); assay type: functional, U-87MG ATCC; details: read-out: Activity
U-87 MG [26] = test: Induction of apoptosis in human U-87 MG cells assessed as early apoptotic cells at 4 uM measured upto 24 hrs by Annexin V-FITC/PI staining based flow cytometry analysis (reference value: 0.45%); assay type: functional, U-87MG ATCC
U-87 MG [27] = test: Induction of apoptosis in human U-87 MG cells assessed as late apoptotic cells at 4 uM measured upto 24 hrs by Annexin V-FITC/PI staining based flow cytometry analysis (reference value: 0.54%); assay type: functional, U-87MG ATCC
U-87 MG [28] = test: Induction of apoptosis in human U-87 MG cells assessed as necrotic cells at 4 uM measured upto 24 hrs by Annexin V-FITC/PI staining based flow cytometry analysis (reference value: 0.62%); assay type: functional, U-87MG ATCC
U-87 MG [29] = test: Induction of apoptosis in human U-87 MG cells assessed as viable cells at 8 uM measured upto 24 hrs by Annexin V-FITC/PI staining based flow cytometry analysis (reference value: 98.4%); assay type: functional, U-87MG ATCC; details: read-out: Activity
U-87 MG [30] = test: Induction of apoptosis in human U-87 MG cells assessed as early apoptotic cells at 8 uM measured upto 24 hrs by Annexin V-FITC/PI staining based flow cytometry analysis (reference value: 0.45%); assay type: functional, U-87MG ATCC
U-87 MG [31] = test: Induction of apoptosis in human U-87 MG cells assessed as late apoptotic cells at 8 uM measured upto 24 hrs by Annexin V-FITC/PI staining based flow cytometry analysis (reference value: 0.54%); assay type: functional, U-87MG ATCC
U-87 MG [32] = test: Induction of apoptosis in human U-87 MG cells assessed as necrotic cells at 8 uM measured upto 24 hrs by Annexin V-FITC/PI staining based flow cytometry analysis (reference value: 0.62%); assay type: functional, U-87MG ATCC
U-87 MG [33] = test: Induction of apoptosis in human U-87 MG cells assessed as […] in cleaved caspase-3 level at 0.05 to 0.8 uM incubated for 24 hrs by Western blot analysis; assay type: functional, cell-based; details: U-87MG ATCC, dose 0.05-0.8 µM
U-87 MG [34] = test: Induction of apoptosis in human U-87 MG cells assessed as […] in Bcl-xL level at 0.05 to 0.8 uM incubated for 24 hrs by Western blot analysis; assay type: functional, cell-based; details: U-87MG ATCC, dose 0.05-0.8 µM
U-87 MG [35] = test: Induction of cell cycle arrest in human U-87 MG cells assessed as accumulation of cells at G0/G1 phase at 2 uM by propidium Iodide staining based flow cytometry analysis (reference value: 80.68%); assay type: functional, U-87MG ATCC
U-87 MG [36] = test: Induction of cell cycle arrest in human U-87 MG cells assessed as accumulation of cells at G2M phase at 2 uM by propidium Iodide staining based flow cytometry analysis (reference value: 9.73%); assay type: functional, U-87MG ATCC
U-87 MG [37] = test: Induction of cell cycle arrest in human U-87 MG cells assessed as accumulation of cells at […] at 2 uM by propidium Iodide staining based flow cytometry analysis (reference value: 1.67%); assay type: functional, U-87MG ATCC
U-87 MG [38] = test: Induction of cell cycle arrest in human U-87 MG cells assessed as accumulation of cells at S phase at 2 uM by propidium Iodide staining based flow cytometry analysis (reference value: 9.59%); assay type: functional, U-87MG ATCC
U-87 MG [39] = test: Induction of cell cycle arrest in human U-87 MG cells assessed as accumulation of cells at G0/G1 phase at 4 uM by propidium Iodide staining based flow cytometry analysis (reference value: 80.68%); assay type: functional, U-87MG ATCC
U-87 MG [40] = test: Induction of cell cycle arrest in human U-87 MG cells assessed as accumulation of cells at G2M phase at 4 uM by propidium Iodide staining based flow cytometry analysis (reference value: 9.73%); assay type: functional, U-87MG ATCC
U-87 MG [41] = test: Induction of cell cycle arrest in human U-87 MG cells assessed as accumulation of cells at […] at 4 uM by propidium Iodide staining based flow cytometry analysis (reference value: 1.67%); assay type: functional, U-87MG ATCC
U-87 MG [42] = test: Induction of cell cycle arrest in human U-87 MG cells assessed as accumulation of cells at S phase at 4 uM by propidium Iodide staining based flow cytometry analysis (reference value: 9.59%); assay type: functional, U-87MG ATCC
U-87 MG [43] = test: Induction of cell cycle arrest in human U-87 MG cells assessed as accumulation of cells at G0/G1 phase at 8 uM by propidium Iodide staining based flow cytometry analysis (reference value: 80.68%); assay type: functional, U-87MG ATCC
U-87 MG [44] = test: Induction of cell cycle arrest in human U-87 MG cells assessed as accumulation of cells at G2M phase at 8 uM by propidium Iodide staining based flow cytometry analysis (reference value: 9.73%); assay type: functional, U-87MG ATCC
U-87 MG [45] = test: Induction of cell cycle arrest in human U-87 MG cells assessed as accumulation of cells at […] at 8 uM by propidium Iodide staining based flow cytometry analysis (reference value: 1.67%); assay type: functional, U-87MG ATCC
U-87 MG [46] = test: Induction of cell cycle arrest in human U-87 MG cells assessed as accumulation of cells at S phase at 8 uM by propidium Iodide staining based flow cytometry analysis (reference value: 9.59%); assay type: functional, U-87MG ATCC

T1 sequence (Q05397 2-1052 limits assumed): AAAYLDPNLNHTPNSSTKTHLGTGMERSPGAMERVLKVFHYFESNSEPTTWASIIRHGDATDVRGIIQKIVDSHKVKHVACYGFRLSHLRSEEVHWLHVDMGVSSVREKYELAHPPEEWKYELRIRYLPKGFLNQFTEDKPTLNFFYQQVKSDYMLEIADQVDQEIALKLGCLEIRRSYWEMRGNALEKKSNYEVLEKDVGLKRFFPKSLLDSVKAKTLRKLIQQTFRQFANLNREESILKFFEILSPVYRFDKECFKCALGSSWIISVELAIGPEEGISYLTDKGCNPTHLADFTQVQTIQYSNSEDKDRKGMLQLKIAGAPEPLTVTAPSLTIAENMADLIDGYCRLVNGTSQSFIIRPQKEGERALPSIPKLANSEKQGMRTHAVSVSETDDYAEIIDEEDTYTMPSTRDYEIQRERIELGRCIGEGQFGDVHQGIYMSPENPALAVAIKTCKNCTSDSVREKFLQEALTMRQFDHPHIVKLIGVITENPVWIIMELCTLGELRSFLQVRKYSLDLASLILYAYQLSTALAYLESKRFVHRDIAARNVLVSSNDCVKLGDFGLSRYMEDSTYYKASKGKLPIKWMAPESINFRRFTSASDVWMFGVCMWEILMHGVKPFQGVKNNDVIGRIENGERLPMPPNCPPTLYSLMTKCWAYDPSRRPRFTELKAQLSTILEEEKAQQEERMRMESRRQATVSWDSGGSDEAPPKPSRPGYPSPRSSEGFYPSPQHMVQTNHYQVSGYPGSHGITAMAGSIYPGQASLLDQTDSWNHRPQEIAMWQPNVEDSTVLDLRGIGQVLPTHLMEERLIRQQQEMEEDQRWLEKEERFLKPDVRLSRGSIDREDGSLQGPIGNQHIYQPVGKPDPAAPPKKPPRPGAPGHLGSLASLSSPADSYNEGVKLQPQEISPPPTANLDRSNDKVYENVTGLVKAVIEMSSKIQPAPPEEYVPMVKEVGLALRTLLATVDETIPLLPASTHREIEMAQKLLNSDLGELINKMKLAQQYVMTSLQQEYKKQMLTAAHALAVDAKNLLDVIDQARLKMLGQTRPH

Compound: Cn1nnc2c(C(N)=O)ncn2c1=O [TEMOZOLOMIDE]
- Activity (U-87 MG [1]): 11.6
- inhibition in vivo at 25 mg/kg (U-87 MG [2]): 31.4%
- Activity [3]: Non-toxic
- Activity [4]: Non-toxic

Compound: CNC(=O)c1ccccc1Nc1nc(Nc2ccc(N3CCOCC3)cc2OC)ncc1Cl
- IC50 (U-251): 5.84 µM
- IC50 (U-87 MG [5]): 2.85 µM
- inhibition (Focal adhesion kinase 1 [6]): 78.6%
- IC50 at 48 h [7]: 4.14 µM
- IC50 at 48 h [8]: 42.8 µM
- logD [9]: 3.49
- Activity (U-87 MG [1]; U-87MG ATCC): inactive
- inhibition (U-87 MG [10]): inactive
- inhibition (U-87 MG [11]): inactive
- inhibition (INH) (U-87 MG [12]): 60%
- inhibition (INH) (U-87 MG [13]): 61%
- inhibition at 0.005 µM (U-87 MG [14]): ~8%
- inhibition at 0.005 µM (U-87 MG [15]): 12%
- inhibition (U-87 MG [16]): Active
- inhibition (U-87 MG [17]): Time-dependent-effect
- inhibition (Focal adhesion kinase 1 [18]): inactive
- inhibition (U-87 MG [19]): inactive
- inhibition (U-87 MG [20]): inactive
- viability at 2 µM (U-87 MG [21]): 84.3%
- Activity (U-87 MG [22]): 2.78%
- Activity (U-87 MG [23]): 9.29%
- Activity (U-87 MG [24]): 3.64%
- viability at 4 µM (U-87 MG [25]): 78.2%
- Activity (U-87 MG [26]): 11%
- Activity (U-87 MG [27]): 4.35%
- Activity (U-87 MG [28]): 6.39%
- viability at 8 µM (U-87 MG [29]): 61.2%
- Activity (U-87 MG [30]): 26.2%
- Activity (U-87 MG [31]): 12.3%
- Activity (U-87 MG [32]): 0.31%
- Activity (U-87 MG [33]): Active
- Activity (U-87 MG [34]): Active
- Activity (U-87 MG [35]): 72.55%
- Activity (U-87 MG [36]): 14.62%
- Activity (U-87 MG [37]): 1.75%
- Activity (U-87 MG [38]): 12.83%
- Activity (U-87 MG [39]): 56.37%
- Activity (U-87 MG [40]): 23.91%
- Activity (U-87 MG [41]): 1.81%
- Activity (U-87 MG [42]): 19.73%
- Activity (U-87 MG [43]): 33.93%
- Activity (U-87 MG [44]): 62.41%
- Activity (U-87 MG [45]): 1.84%
- Activity (U-87 MG [46]): 3.66%
